Reference: PMC6364417, “Kinase inhibitor library screening identifies synergistic drug combinations effective in sensitive and resistant melanoma cells” (Journal of Experimental & Clinical Cancer Research : CR, 2019)

Tests used:
Experiment in all cases: Kinase inhibitor library screening, PrestoBlue cell viability, 1 or 10 μM, 72 h
[1] = tested on: IGR37-GP cells (Dabrafenib-resistant); conditions: IGR37 GP; for Cell viability in kinase inhibitor library screening, IGR37 GP, 10μΜ / cell viability, IGR37 GP, 10μΜ / cell viability, IGR37 GP, 1μΜ: 72 h
Procedure: (§1) After 72 h of treatment, cell viability was assessed using the PrestoBlue Cell Viability Reagent (ThermoFisher Scientific). Measurements were performed with the CLARIOstar Monochromator microplate reader (BMG Labtech).
(§2) Kinase inhibitor library screening. […] Each cell line was treated in its sensitive form (parental), and also as 2 resistant derivatives, which were made resistant to either Vemurafenib (XP) or Dabrafenib (GP). Drugs were added at 2 different concentrations, 1 and 10 μM, for 72 h and cell viability was assessed using the PrestoBlue Cell Viability assay. Results are depicted as % viability compared to untreated cells. Each cell line was analyzed at least in duplicate. […] (XLSX 95 kb)

A375 cells (parental) = conditions: A375 Parental
Procedure: as §1, §2

[2] = tested on: 501Mel-XP cells (Vemurafenib-resistant); conditions: 501Mel XP, in %; for Cell viability in kinase inhibitor library screening, 501Mel XP, 1μΜ / Cell viability in kinase inhibitor library screening, 501Mel XP, 10μΜ / cell viability, 501Mel XP, 1μΜ / cell viability, 501Mel XP, 10μΜ: 72 h
Procedure: as §1, §2

IGR37 cells (parental) = conditions: IGR37 Parental, 72 h, in %
Procedure: as §1, §2

[3] = tested on: 501Mel-GP cells (Dabrafenib-resistant); conditions: 501Mel GP, in %; for Cell viability in kinase inhibitor library screening, 501Mel GP, 1μΜ / Cell viability in kinase inhibitor library screening, 501Mel GP, 10μΜ / cell viability, 501Mel GP, 1μΜ / cell viability, 501Mel GP, 10μΜ: 72 h
Procedure: as §1, §2

[4] = tested on: A375-GP cells (Dabrafenib-resistant); conditions: A375 GP
Procedure: as §1, §2

[5] = tested on: A375-XP cells (Vemurafenib-resistant); conditions: A375 XP
Procedure: as §1, §2

[6] = tested on: IGR37-XP cells (Vemurafenib-resistant); conditions: IGR37 XP; for Cell viability in kinase inhibitor library screening, IGR37 XP, 10μΜ / Cell viability in kinase inhibitor library screening, IGR37 XP, 1μΜ / cell viability, IGR37 XP, 10μΜ / cell viability, IGR37 XP, 1μΜ: 72 h; for Cell viability in kinase inhibitor library screening, IGR37 XP, 1μΜ / cell viability, IGR37 XP, 1μΜ / cell viability (kinase inhibitor library screening): in %
Procedure: as §1, §2

501Mel cells (parental) = conditions: 501Mel Parental, in %
Procedure: as §1, §2

Compound	Cell viability in kinase inhibitor library screening, IGR37 GP, 10μΜ [1] [%]	Cell viability in kinase inhibitor library screening, A375 Parental, 10μΜ (A375 cells (parental); 10μΜ, 72 h)	Cell viability in kinase inhibitor library screening, A375 Parental, 1μΜ (A375 cells (parental); 1μΜ, 72 h)	Cell viability in kinase inhibitor library screening, 501Mel XP, 1μΜ ([2]; 1μΜ)	Cell viability in kinase inhibitor library screening, 501Mel XP, 10μΜ ([2]; 10μΜ)	Cell viability in kinase inhibitor library screening, 501Mel GP, 1μΜ ([3]; 1μΜ)	Cell viability in kinase inhibitor library screening, 501Mel GP, 10μΜ ([3]; 10μΜ)	Cell viability in kinase inhibitor library screening, A375 GP, 10μΜ ([4]; 10μΜ, 72 h)	Cell viability in kinase inhibitor library screening, A375 XP, 10μΜ ([5]; 10μΜ, 72 h)	Cell viability in kinase inhibitor library screening, IGR37 XP, 10μΜ ([6]; 10μΜ) [%]	Cell viability in kinase inhibitor library screening, IGR37 XP, 1μΜ ([6]; 1μΜ)	cell viability, IGR37 GP, 10μΜ [1] [%]	cell viability, IGR37 GP, 1μΜ ([1]; 1μΜ, in %)	cell viability, A375 Parental, 10μΜ (A375 cells (parental); 10μΜ, 72 h, in %)	cell viability, 501Mel XP, 1μΜ ([2]; 1μΜ)	cell viability, 501Mel XP, 10μΜ ([2]; 10μΜ)	cell viability, IGR37 Parental, 10μΜ (IGR37 cells (parental); 10μΜ)	cell viability, 501Mel GP, 1μΜ ([3]; 1μΜ)	cell viability, 501Mel GP, 10μΜ ([3]; 10μΜ)	cell viability, A375 GP, 1μΜ ([4]; 1μΜ, 72 h, in %)	other results
Cc1ccccc1-n1c(Cn2cnc3c(N)ncnc32)nc2cccc(C)c2c1=O [IC-87114]	91.5	90.3	98.8	98.1	83.6	100.1	87.1	88.8	102.9	77.2	93.3	–	–	–	–	–	–	–	–	–	Cell viability in kinase inhibitor library screening, IGR37 Parental, 1μΜ (IGR37 cells (parental); 1μΜ): 97.2; Cell viability in kinase inhibitor library screening, IGR37 Parental, 10μΜ (IGR37 cells (parental); 10μΜ): 99.7; Cell viability in kinase inhibitor library screening, A375 GP, 1μΜ ([4]; 1μΜ, 72 h): 93.5; Cell viability in kinase inhibitor library screening, A375 XP, 1μΜ ([5]; 1μΜ, 72 h): 103.8
C[C@@H]1CCN(C(=O)CC#N)C[C@@H]1N(C)c1ncnc2[nH]ccc12 [Tofacitinib (CP-690550, Tasocitinib)]	–	–	–	–	–	–	–	–	–	–	–	95.3	97.9	97.3	94.3	92.6	104.5	104.8	94.8	103.9	cell viability, A375 Parental, 1μΜ (A375 cells (parental); 1μΜ, 72 h, in %): 104.5; cell viability, IGR37 Parental, 1μΜ (IGR37 cells (parental); 1μΜ): 108.6; cell viability, A375 GP, 10μΜ ([4]; 10μΜ, 72 h, in %): 97.7; cell viability, A375 XP, 1μΜ ([5]; 1μΜ, 72 h, in %): 103.8; cell viability, A375 XP, 10μΜ ([5]; 10μΜ, 72 h, in %): 103.6; cell viability, IGR37 XP, 10μΜ ([6]; 10μΜ): 71.2%; cell viability, IGR37 XP, 1μΜ ([6]; 1μΜ): 96.7
O=c1c(O)c(-c2ccc(O)c(O)c2)oc2cc(O)cc(O)c12 [Quercetin (Sophoretin)]	78.8	94.2	97.7	90.4	65.0	98.5	87.4	87.9	96.9	58.7	99.1	–	–	–	–	–	–	–	–	–	Cell viability in kinase inhibitor library screening, 501Mel Parental, 1μΜ (501Mel cells (parental); 1μΜ, 72 h): 99.7; Cell viability in kinase inhibitor library screening, 501Mel Parental, 10μΜ (501Mel cells (parental); 10μΜ, 72 h): 94.0
Cc1[nH]c(/C=C2\C(=O)Nc3ccccc32)c(C)c1CCC(=O)O [TSU-68]	–	–	–	–	–	–	–	–	–	–	–	–	–	–	–	–	–	–	–	–	cell viability (kinase inhibitor library screening) ([1]; 1μΜ, in %): 97.4; cell viability (kinase inhibitor library screening) (501Mel cells (parental); 1μΜ): 103.3; cell viability (kinase inhibitor library screening) (A375 cells (parental); 1μΜ, in %): 114.1; cell viability (kinase inhibitor library screening) (A375 cells (parental); 10μΜ, in %): 107.4; cell viability (kinase inhibitor library screening) ([2]; 1μΜ): 99.9; cell viability (kinase inhibitor library screening) ([2]; 10μΜ): 80.9; cell viability (kinase inhibitor library screening) ([3]; 1μΜ): 108.8; cell viability (kinase inhibitor library screening) ([3]; 10μΜ): 99.1; cell viability (kinase inhibitor library screening) ([4]; 1μΜ, in %): 113.8; cell viability (kinase inhibitor library screening) ([4]; 10μΜ, in %): 94.6; cell viability (kinase inhibitor library screening) ([5]; 1μΜ, in %): 108.6; cell viability (kinase inhibitor library screening) ([5]; 10μΜ, in %): 103.8; cell viability (kinase inhibitor library screening) ([6]; 1μΜ): 95.2; cell viability (kinase inhibitor library screening) ([6]; 10μΜ): 76.8
C[C@@H]1CCN(C(=O)CC#N)C[C@@H]1N(C)c1ncnc2[nH]ccc12.O=C(O)CC(O)(CC(=O)O)C(=O)O [Tofacitinib citrate (CP-690550 citrate)]	–	–	–	–	–	–	–	–	–	–	–	94.9	98.3	93.7	94.0	90.7	107.1	103.5	93.7	103.6	cell viability, A375 XP, 1μΜ ([5]; 1μΜ, 72 h, in %): 103.3; cell viability, IGR37 XP, 10μΜ ([6]; 10μΜ): 83.2%; cell viability, IGR37 XP, 1μΜ ([6]; 1μΜ): 104.3
